The IC50 is the concentration that gives 50% inhibition.

This assay deals with human CXCR2 (Homo sapiens (Human), UniProt P25025). The assay is described as follows: CXCR2 inhibition: calcium fluorescence assay (FLIPR) with chemokine IL-8. It is filed as cell-based. Particulars: CHO-K1 cells stably transfected with human CXCR2 and Gα16, Fluo-4 calcium response. The source says: Determination of CXCR2 Inhibition: Calcium Fluorescence Assay (FLIPR)
The assay is based on the detection of intracellular calcium changes detected by the selective, calcium-chelating dye, Fluo-4 (Molecular Probes). A large fluorescence intensity increase is observed upon calcium association with Fluo-4. The dye is delivered to the cell interior using an acetoxymethylester form of Fluo-4, where the intracellular esterase activity results in the charged species being released and trapped within the cytoplasm of the cell. […] By co-expressing the CXCR2 receptor and the promiscuous Gα16 protein, activation of this chemokine receptor is directed into this phospholipase C cascade resulting in intracellular calcium mobilization.
The CHO-K1 cells stably transfected with human CXCR2 and the promiscuous Gα16 protein are maintained in a log phase of growth at 37° C. and 5% CO2 in the following media: Iscove's, 10% FBS, 1X Penicillin-Streptomycin, 400 μg/ml G418 and 350 μg/ml Zeocin. Approximately 24-48 hours prior to the assay, 20,000-30,000 cells/well are plated onto a 96-well black/clear bottomed assay plate (Becton Dickinson) with a well volume of 180 μl. For dye loading the culture medium is carefully removed and replaced by 100 μl/well dye solution (4 μM Fluo-4 in 135 mM NaCl, 5 mM KCl, 1 mM magnesium sulphate, 5 mM glucose, 20 mM hepes, 2.5 mM probenecid; pH 7.4). Cells are incubated for 1 h at 37° C., and then washed 3× with buffer. After washing 90 μl buffer/well are left. Increasing concentrations of compound is added in 45 μl buffer (4× concentrated) followed by 10 min incubation at 37° C. Then the chemokine (10-100 nM) is applied in 45 μl buffer (4× concentrated) and the measurement is performed for 2 min. The IC50 value of a compound can be determined by calculation of % inhibition of total calcium response to the chemokine.
CXCR2 Inhibition with Chemokine IL-8 for Selected Example Compounds: […]

human CXCR2, sequence (P25025 whole entry): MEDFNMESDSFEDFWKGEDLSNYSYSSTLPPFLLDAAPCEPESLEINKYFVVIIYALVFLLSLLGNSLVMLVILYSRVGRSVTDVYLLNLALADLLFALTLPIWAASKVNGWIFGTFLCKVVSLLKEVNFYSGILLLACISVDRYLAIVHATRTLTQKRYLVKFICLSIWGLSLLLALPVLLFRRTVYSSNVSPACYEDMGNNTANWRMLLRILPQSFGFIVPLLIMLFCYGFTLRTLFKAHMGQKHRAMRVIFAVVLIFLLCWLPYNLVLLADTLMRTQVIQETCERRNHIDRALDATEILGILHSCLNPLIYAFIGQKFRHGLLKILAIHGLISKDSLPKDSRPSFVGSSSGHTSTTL

Consider `CC(C)(NC(=O)c1ccc2c(c1OCCC1CCCCC1)CCCC2)C(=O)O` [Example 2, 2-{[1-(2-Cyclohexyl-ethoxy)-5,6,7,8-tetrahydro-naphthalene-2-carbonyl]-amino}-2-methyl-propionic acid], for which the IC50 is 1400 nM.
On to `CC(C)(NC(=O)c1ccc2c(c1OCCOc1ccccc1)CCCC2)C(=O)O` [Example 3, 2-Methyl-2-{[1-(2-phenoxy-ethoxy)-5,6,7,8-tetrahydro-naphthalene-2-carbonyl]-amino}-propionic acid], for which the IC50 was found to be 1000 nM.
Take `CC(C)(NC(=O)c1ccc2c(c1OCCCCc1ccccc1)CCCC2)C(=O)O` [Example 5, 2-Methyl-2-{[1-(4-phenyl-butoxy)-5,6,7,8-tetrahydro-naphthalene-2-carbonyl]-amino}-propionic acid]: the IC50 amounted to 2000 nM.
For `CC(C)(NC(=O)c1ccc2c(c1OCCCOc1ccccc1)CCCC2)C(=O)O` [Example 7, 2-Methyl-2-{[1-(3-phenoxy-propoxy)-5,6,7,8-tetrahydro-naphthalene-2-carbonyl]-amino}-propionic acid], the IC50 turned out to be 2100 nM.
Next, `CC(C)(NC(=O)c1ccc2ccsc2c1OCCCc1ccccc1)C(=O)O` [Example 8, 2-Methyl-2-{[7-(3-phenyl-propoxy)-benzo[b]thiophene-6-carbonyl]-amino}-propionic acid]: 600 nM; `CC(C)(NC(=O)c1ccc2ccsc2c1OCCOc1ccc(F)cc1)C(=O)O` [Example 11, 2-({7-[2-(4-Fluoro-phenoxy)-ethoxy]-benzo[b]thiophene-6-carbonyl}-amino)-2-methyl-propionic acid]: 800 nM; `CC(C)(NC(=O)c1ccc2sccc2c1OCCOc1ccccc1)C(=O)O` [Example 12, 2-Methyl-2-{[4-(2-phenoxy-ethoxy)-benzo[b]thiophene-5-carbonyl]-amino}-propionic acid]: 1700 nM.

(Values after patent US8980938B2, “CXCR2 inhibitors” (Sanofi, priority 2006, dated 2015).)
